Assay results: patent publication US9302999B2, “Substituted triazoles as herbicides” (E. I. DU PONT DE NEMOURS AND COMPANY, priority 2012, dated 2016)

Assays:
Format in all cases: in vivo
[1] = test system: morningglory (Ipomoea coccinea); assay: Test C pre-/postemergence: morningglory; conditions: Preemergence
Source text: (§1) Seeds of plant species selected from blackgrass (Alopecurus myosuroides), bromegrass, downy (downy bromegrass, Bromus tectorum), foxtail, green (green foxtail, Setaria viridis), ryegrass, Italian (Italian ryegrass, Lolium multiflorum), winter wheat (Triticum aestivum), wild oat (Avena fatua), galium (catchweed bedstraw, Galium aparine), bermudagrass (Cynodon dactylon), surinam grass (Brachiaria decumbens), cocklebur (common cocklebur, Xanthium strumarium), corn (Zea mays), large crabgrass (Digitaria sanguinalis), woolly cupgrass (Eriochloa villosa), foxtail, giant (giant foxtail, Setaria faberii), goosegrass (Eleusine indica), johnsongrass (Sorghum halepense), kochia (Kochia scoparia), lambsquarters (Chenopodium album), morningglory (Ipomoea coccinea), nightshade (eastern black nightshade, Solanum ptycanthum), nutsedge, yellow (yellow nutsedge, Cyperus esculentus), pigweed (Amaranthus retroflexus), ragweed (common ragweed, Ambrosia elation), soybean (Glycine max), common (oilseed) sunflower (Helianthus annuus), Russian thistle (Salsola kali) and velvetleaf (Abutilon theophrasti) were planted into a blend of loam soil and sand and treated preemergence with test chemicals formulated in a non-phytotoxic solvent mixture which included a surfactant.
(§2) At the same time, plants selected from these crop and weed species and also barley (winter barley, Hordeum vulgare), canarygrass (Phalaris minor), chickweed (common chickweed, Stellaria media) windgrass (Apera spica-venti) and deadnettle (henbit deadnettle, Lamium amplexicaule) were planted in pots containing Redi-Earth® planting medium (Scotts Company, 14111 Scottslawn Road, Marysville, Ohio 43041) comprising spaghnum peat moss, vermiculite, wetting agent and starter nutrients and treated with postemergence applications of test chemicals formulated in the same manner. Plants ranged in height from 2 to 18 cm (1- to 4-leaf stage) for postemergence treatments.
(§3) Treated plants and controls were maintained in a greenhouse for 13 to 15 days, after which time all species were compared to controls and visually evaluated. Plant response ratings, summarized in Table C, are based on a scale of 0 to 100 where 0 is no effect and 100 is complete control. A dash (-) response means no test result.

[2] = test system: morningglory (Ipomoea spp.); assay: Test A pre-/postemergence: morningglory; conditions: for Morningglory plant response rating: visual rating on 0 to 100 scale (0 no effect, 100 complete control), approximately ten days
Method in brief: (§4)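 Plants in loam–sand blend were treated with test chemicals in non-phytotoxic solvent with surfactant, either as preemergence directed soil spray or postemergence at 2–10 cm, one- to two-leaf stage. After about ten days in greenhouse, injury was rated visually against untreated controls on a 0–100 scale (100 = complete control).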

[3] = test system: nutsedge, yellow (yellow nutsedge, Cyperus esculentus); assay: Test C pre-/postemergence: nutsedge, yellow
Method in brief: (§5)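 Visual injury scored 0–100 (100 = complete control) against untreated controls after 13–15 greenhouse days. Surfactant-containing solvent formulations applied either to soil after sowing (loam/sand) or over 1- to 4-leaf plants, 2–18 cm tall.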

[4] = test system: wheat (Triticum aestivum); assay: Test A pre-/postemergence: wheat; conditions: for Wheat plant response rating: visual rating on 0 to 100 scale (0 no effect, 100 complete control), approximately ten days
Method in brief: as §4

[5] = test system: pigweed (Amaranthus retroflexus); assay: Test A pre-/postemergence: pigweed; conditions: for Pigweed plant response rating: visual rating on 0 to 100 scale (0 no effect, 100 complete control), approximately ten days
Method in brief: as §4

[6] = test system: winter wheat (Triticum aestivum); assay: Test C pre-/postemergence: winter wheat
Method in brief: as §5

[7] = test system: barnyardgrass (Echinochloa crus-galli); assay: Test A pre-/postemergence: barnyardgrass
Method in brief: as §4

[8] = test system: foxtail, giant (giant foxtail, Setaria faberii); assay: Test C pre-/postemergence: foxtail, giant
Source text: as §1, §2, §3

corn (Zea mays) = assay: Test A pre-/postemergence: corn
Method in brief: as §4

[9] = test system: blackgrass (Alopecurus myosuroides); assay: Test C pre-/postemergence: blackgrass
Source text: as §1, §2, §3

[10] = test system: ryegrass, Italian (Italian ryegrass, Lolium multiflorum); assay: Test C pre-/postemergence: ryegrass, Italian
Source text: as §1, §2, §3

[11] = 31 g ai/ha, scale of 0 to 100, 0 is no effect, 100 is complete control
[12] = 62 g ai/ha, scale of 0 to 100, 0 is no effect, 100 is complete control
[13] = 250 g ai/ha, scale 0 to 100, 0 no effect, 100 complete control
[14] = Postemergence, 125 g ai/ha, 0 to 100 scale, 0 is no effect, 100 is complete control
[15] = Preemergence, 125 g ai/ha, 0 to 100 scale where 0 is no effect and 100 is complete control
[16] = Preemergence, 500 g ai/ha, 0 to 100 scale (0 no effect, 100 complete control)
[17] = Postemergence, 31 g ai/ha, scale 0 to 100 (0 no effect, 100 complete control)
[18] = Postemergence, 62 g ai/ha, scale 0 to 100 (0 no effect, 100 complete control)
[19] = Postemergence, 125 g ai/ha, scale 0 to 100, 0 no effect, 100 complete control
[20] = Postemergence, 250 g ai/ha, scale 0 to 100
[21] = Preemergence, 31 g ai/ha, scale of 0 to 100, 0 is no effect, 100 is complete control
[22] = Preemergence, 62 g ai/ha, scale of 0 to 100, 0 is no effect, 100 is complete control
[23] = Preemergence, 125 g ai/ha, scale 0 to 100, 0 no effect, 100 complete control
[24] = Preemergence, 250 g ai/ha, scale 0 to 100, 0 no effect, 100 complete control
[25] = Postemergence, 500 g ai/ha, visual rating on 0 to 100 scale (0 no effect, 100 complete control), approximately ten days

Cc1nn(-c2ccc(C(F)(F)F)c(F)c2)nc1Cc1ccnc(C(F)(F)F)c1 [Compound 162]
65: Plant response rating, Foxtail, Giant [8, 19]
80: Plant response rating, Morningglory ([1]; 125 g ai/ha, scale 0 to 100, 0 no effect, 100 complete control) | Plant response rating, Barnyardgrass [7, 14] | Plant response rating, Blackgrass [9, 18] | Plant response rating, Ryegrass, Italian [10, 20] | Plant response rating, Ryegrass, Italian [10, 22]
30: Plant response rating, Morningglory [2, 15] | Wheat plant response rating ([4]; Postemergence, 500 g ai/ha) | Plant response rating, Wheat [4, 16] | Plant response rating, Corn (corn (Zea mays); [16]) | Plant response rating, Ryegrass, Italian [10, 17]
55: Plant response rating, Morningglory [1, 11] | Plant response rating, Foxtail, Giant [8, 18]
35: Plant response rating, Wheat [6, 24] | Plant response rating, Ryegrass, Italian [10, 18]
90: Plant response rating, Morningglory [2, 14] | Morningglory plant response rating ([2]; Postemergence, 500 g ai/ha) | Plant response rating, Morningglory [2, 16] | Barnyardgrass plant response rating [7, 25] | Plant response rating, Barnyardgrass [7, 15] | Plant response rating, Blackgrass [9, 20] | Plant response rating, Blackgrass [9, 22] | Plant response rating, Blackgrass [9, 23] | Plant response rating, Ryegrass, Italian [10, 23]
25: Plant response rating, Wheat [6, 19] | Plant response rating, Wheat [6, 20]
40: Corn plant response rating (corn (Zea mays); [25])
85: Plant response rating, Morningglory [1, 13] | Plant response rating, Blackgrass [9, 19]
60: Plant response rating, Morningglory [1, 12] | Plant response rating, Blackgrass [9, 21] | Plant response rating, Ryegrass, Italian [10, 19] | Plant response rating, Ryegrass, Italian [10, 21]
95: Plant response rating, Blackgrass [9, 24] | Plant response rating, Ryegrass, Italian [10, 24]
20: Plant response rating, Wheat [4, 14] | Plant response rating, Wheat [6, 17] | Plant response rating, Wheat [6, 18] | Plant response rating, Wheat [6, 23] | Plant response rating, Corn (corn (Zea mays); [14]) | Plant response rating, Corn (corn (Zea mays); [15])
0: Plant response rating, Nutsedge, Yellow [3, 21] | Plant response rating, Nutsedge, Yellow [3, 22]
45: Plant response rating, Foxtail, Giant [8, 17] | Plant response rating, Blackgrass [9, 17]
5: Plant response rating, Nutsedge, Yellow [3, 17] | Plant response rating, Nutsedge, Yellow [3, 18] | Plant response rating, Nutsedge, Yellow [3, 19] | Plant response rating, Nutsedge, Yellow [3, 23] | Plant response rating, Nutsedge, Yellow [3, 24] | Plant response rating, Wheat [6, 22]
100: Plant response rating, Pigweed [5, 14] | Pigweed plant response rating ([5]; Postemergence, 500 g ai/ha) | Plant response rating, Pigweed [5, 15] | Plant response rating, Pigweed [5, 16] | Plant response rating, Barnyardgrass [7, 16] | Plant response rating, Foxtail, Giant [8, 22] | Plant response rating, Foxtail, Giant [8, 23] | Plant response rating, Foxtail, Giant [8, 24]
98: Plant response rating, Foxtail, Giant [8, 20] | Plant response rating, Foxtail, Giant [8, 21]
10: Plant response rating, Nutsedge, Yellow [3, 20] | Plant response rating, Wheat [4, 15]

Cc1nn(-c2ccc(F)c(C(F)(F)F)c2)nc1Oc1ccnc(C(F)(F)F)c1 [Compound 147]
0: Plant response rating, Nutsedge, Yellow [3, 21] | Plant response rating, Nutsedge, Yellow [3, 22] | Plant response rating, Nutsedge, Yellow [3, 23]
45: Plant response rating, Wheat [6, 24]
20: Plant response rating, Wheat [4, 14]
95: Plant response rating, Ryegrass, Italian [10, 24]
10: Plant response rating, Corn (corn (Zea mays); [15]) | Plant response rating, Ryegrass, Italian [10, 21]
100: Plant response rating, Pigweed [5, 14] | Pigweed plant response rating ([5]; Postemergence, 500 g ai/ha) | Plant response rating, Pigweed [5, 15] | Plant response rating, Pigweed [5, 16] | Plant response rating, Barnyardgrass [7, 16] | Plant response rating, Foxtail, Giant [8, 23] | Plant response rating, Foxtail, Giant [8, 24]
30: Plant response rating, Morningglory [1, 11] | Plant response rating, Morningglory [1, 12] | Plant response rating, Wheat [4, 15] | Plant response rating, Wheat [6, 23] | Corn plant response rating (corn (Zea mays); [14]) | Plant response rating, Corn (corn (Zea mays); [16])
35: Plant response rating, Morningglory [1, 13]
15: Plant response rating, Nutsedge, Yellow [3, 24]
40: Corn plant response rating (corn (Zea mays); [25])
5: Plant response rating, Wheat [6, 22]
85: Plant response rating, Foxtail, Giant [8, 21] | Plant response rating, Blackgrass [9, 22] | Plant response rating, Ryegrass, Italian [10, 23]
80: Plant response rating, Morningglory [2, 16] | Barnyardgrass plant response rating [7, 14] | Barnyardgrass plant response rating [7, 25]
50: Wheat plant response rating ([4]; Postemergence, 500 g ai/ha) | Plant response rating, Wheat [4, 16] | Plant response rating, Blackgrass [9, 21] | Plant response rating, Ryegrass, Italian [10, 22]
98: Plant response rating, Foxtail, Giant [8, 22]
90: Plant response rating, Morningglory [2, 14] | Morningglory plant response rating ([2]; Postemergence, 500 g ai/ha) | Plant response rating, Barnyardgrass [7, 15] | Plant response rating, Blackgrass [9, 23] | Plant response rating, Blackgrass [9, 24]
